Measured values reported in US20240398828A1, “HETERO-ATOM CONTAINING COMPOUNDS AND USES THEREOF” (Kumquat Biosciences Inc., priority 2021, published 2024).

Experiments:
PTPN2 (i.e., TC-PTP) = target: T1, PTPN2 (i.e., TC-PTP) (Homo sapiens, UniProt P17706); experiment: Phosphatase activity assay (DiFMUP substrate), PTPN2; format: biochemical; conditions: compounds binned ≤1 uM or >1 uM
T1 sequence (P17706 1-415): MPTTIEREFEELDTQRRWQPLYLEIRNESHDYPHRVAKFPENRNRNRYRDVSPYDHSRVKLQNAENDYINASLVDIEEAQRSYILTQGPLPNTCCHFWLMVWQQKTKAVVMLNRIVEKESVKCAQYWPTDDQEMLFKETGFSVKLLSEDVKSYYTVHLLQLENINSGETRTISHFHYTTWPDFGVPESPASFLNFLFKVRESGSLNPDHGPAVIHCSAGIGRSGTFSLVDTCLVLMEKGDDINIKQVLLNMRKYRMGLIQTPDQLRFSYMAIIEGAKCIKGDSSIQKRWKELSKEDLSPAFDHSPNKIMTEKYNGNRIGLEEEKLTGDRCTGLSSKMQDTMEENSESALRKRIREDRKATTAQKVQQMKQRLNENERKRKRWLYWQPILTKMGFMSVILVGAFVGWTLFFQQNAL
Procedure, shortened: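 Read-out is continuous fluorescence of DiFMU (360 nm excitation, 450 nm emission) over about 15-30 minutes, with DiFMUP substrate at the enzyme's independently determined Km (PTPN2 approx. 45 μM final). Buffer: 50 mM HEPES pH 7.5, 150 mM NaCl, 0.5 mM EDTA, 1 mM DTT, 0.001% Tween-20, room temperature; initial rates versus 10-point dilution fitted for IC50, at least duplicate.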

PTPN1 (i.e., PTP1B) = target: T2, PTPN1 (i.e., PTP1B) (Homo sapiens, UniProt P18031); experiment: Phosphatase activity assay (DiFMUP substrate), PTP1B; format: biochemical; conditions: compounds binned ≤1 uM or >1 uM
T2 sequence (P18031 1-435): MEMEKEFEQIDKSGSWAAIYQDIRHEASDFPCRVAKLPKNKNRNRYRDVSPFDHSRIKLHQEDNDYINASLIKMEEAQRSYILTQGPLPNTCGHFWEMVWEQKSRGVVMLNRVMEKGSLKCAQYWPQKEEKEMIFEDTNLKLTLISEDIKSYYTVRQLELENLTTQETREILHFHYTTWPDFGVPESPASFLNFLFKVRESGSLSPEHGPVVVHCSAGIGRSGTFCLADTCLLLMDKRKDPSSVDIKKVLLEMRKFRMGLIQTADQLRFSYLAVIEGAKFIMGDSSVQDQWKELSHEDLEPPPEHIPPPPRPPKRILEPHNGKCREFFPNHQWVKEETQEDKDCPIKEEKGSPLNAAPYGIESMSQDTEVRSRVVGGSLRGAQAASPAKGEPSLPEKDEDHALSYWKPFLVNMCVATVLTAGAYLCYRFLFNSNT
Procedure, shortened: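 First, serially diluted inhibitor is mixed about 2 minutes with enzyme in pH 7.5 HEPES/NaCl/EDTA/DTT/Tween-20 buffer. Next, DiFMUP is added at the enzyme's Km, approximately 45 μM for PTPN2. Finally, DiFMU appearance is read continuously at room temperature and rates are fitted for IC50.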

| SMILES | IC50 (PTPN2 (i.e., TC-PTP)) [µM] | IC50 (PTPN1 (i.e., PTP1B)) [µM] |
| --- | --- | --- |
| O=C1CN(c2c(O)ccc(-c3cnn(C(F)F)c3)c2F)S(=O)(=O)N1 [Compound 273, 5-(3-(1-(difluoromethyl)-1H-pyrazol-4-yl)-2-fluoro-6-hydroxyphenyl)-1,2,5-thiadiazolidin-3-one 1,1-dioxide] | ≤ 1 | ≤ 1 |
| O=C1CN(c2c(O)ccc(-c3cnn(CC(F)(F)F)c3)c2F)S(=O)(=O)N1 [Compound 366, 5-(2-fluoro-6-hydroxy-3-(1-(2,2,2-trifluoroethyl)-1H-pyrazol-4-yl)phenyl)-1,2,5-thiadiazolidin-3-one 1,1-dioxide] | ≤ 1 | ≤ 1 |
| O=C1CN(c2c(O)ccc(-n3cc(C4CC4)c(O)n3)c2F)S(=O)(=O)N1 [Compound 458, 5-(3-(4-cyclopropyl-3-hydroxy-1H-pyrazol-1-yl)-2-fluoro-6-hydroxyphenyl)-1,2,5-thiadiazolidin-3-one 1,1-dioxide] | ≤ 1 | ≤ 1 |
| O=C1CN(c2c(O)ccc(-c3ccc(NS(=O)(=O)C4CC4)cn3)c2F)S(=O)(=O)N1 [Compound 261, N-(6-(3-(1,1-dioxido-4-oxo-1,2,5-thiadiazolidin-2-yl)-2-fluoro-4-hydroxyphenyl)pyridin-3-yl)cyclopropanesulfonamide] | ≤ 1 | ≤ 1 |
| CN(C)C1CC=C(c2ccc(O)c(N3CC(=O)NS3(=O)=O)c2F)C1 (stereo not shown) [Compound 301, 5-(3-(4-(dimethylamino)cyclopent-1-en-1-yl)-2-fluoro-6-hydroxyphenyl)-1,2,5-thiadiazolidin-3-one 1,1-dioxide] | ≤ 1 | ≤ 1 |
| O=C1CN(c2c(O)ccc(-c3ccn(CC4CC4)c3)c2F)S(=O)(=O)N1 [Compound 240, 5-(3-(1-(cyclopropylmethyl)-1H-pyrrol-3-yl)-2-fluoro-6-hydroxyphenyl)-1,2,5-thiadiazolidin-3-one 1,1-dioxide] | ≤ 1 | ≤ 1 |
| Cn1ncc2cc(-c3ccc(O)c(N4CC(=O)NS4(=O)=O)c3F)ccc21 [Compound 112, 5-(2-fluoro-6-hydroxy-3-(1-methyl-1H-indazol-5-yl)phenyl)-1,2,5-thiadiazolidin-3-one 1,1-dioxide] | ≤ 1 | ≤ 1 |
| O=C1CN(c2c(O)ccc(-c3ccc(NC(=O)C4CC4(F)F)cc3)c2F)S(=O)(=O)N1 (stereo not shown) [Compound 403, N-(3′-(1,1-dioxido-4-oxo-1,2,5-thiadiazolidin-2-yl)-2′-fluoro-4′-hydroxy-[1,1′-biphenyl]-4-yl)-2,2-difluorocyclopropane-1-carboxamide] | ≤ 1 | ≤ 1 |
| O=C1CN(c2c(O)ccc(-c3cn(C4CCCCC4)cn3)c2F)S(=O)(=O)N1 [Compound 459, 5-(3-(1-cyclohexyl-1H-imidazol-4-yl)-2-fluoro-6-hydroxyphenyl)-1,2,5-thiadiazolidin-3-one 1,1-dioxide] | ≤ 1 | ≤ 1 |
| O=C1CN(c2c(O)ccc(-c3cc(C4CC4)n(CC4CCCN4)n3)c2F)S(=O)(=O)N1 (stereo not shown) [Compound 382, 5-(3-(5-cyclopropyl-1-(pyrrolidin-2-ylmethyl)-1H-pyrazol-3-yl)-2-fluoro-6-hydroxyphenyl)-1,2,5-thiadiazolidin-3-one 1,1-dioxide] | ≤ 1 | ≤ 1 |
| CC(C)CCc1cc(-c2ccc(O)c(N3CC(=O)NS3(=O)=O)c2F)nn1C [Compound 380, 5-(2-fluoro-6-hydroxy-3-(5-isopentyl-1-methyl-1H-pyrazol-3-yl)phenyl)-1,2,5-thiadiazolidin-3-one 1,1-dioxide] | ≤ 1 | ≤ 1 |
| O=C1CN(c2c(O)ccc(-c3cn(-c4cc(F)cc(F)c4)cn3)c2F)S(=O)(=O)N1 [Compound 265, 5-(3-(1-(3,5-difluorophenyl)-1H-imidazol-4-yl)-2-fluoro-6-hydroxyphenyl)-1,2,5-thiadiazolidin-3-one 1,1-dioxide] | ≤ 1 | ≤ 1 |
| CC1CCC(n2cc(-c3ccc(O)c(N4CC(=O)NS4(=O)=O)c3F)cn2)CC1 (stereo not shown) [Compound 304, 5-(2-fluoro-6-hydroxy-3-(1-(4-methylcyclohexyl)-1H-pyrazol-4-yl)phenyl)-1,2,5-thiadiazolidin-3-one 1,1-dioxide] | ≤ 1 | ≤ 1 |
| Cn1ncc2cc(-c3ccc(O)c(N4CC(=O)NS4(=O)=O)c3F)cnc21 [Compound 156, 5-(2-fluoro-6-hydroxy-3-(1-methyl-1H-pyrazolo[3,4-b]pyridin-5-yl)phenyl)-1,2,5-thiadiazolidin-3-one 1,1-dioxide] | ≤ 1 | ≤ 1 |
| O=C1CN(c2c(O)ccc(-c3cnn(C4CC5CCC(C4)O5)c3)c2F)S(=O)(=O)N1 (stereo not shown) [Compound 465, 5-(3-(1-(8-oxabicyclo[3.2.1]octan-3-yl)-1H-pyrazol-4-yl)-2-fluoro-6-hydroxyphenyl)-1,2,5-thiadiazolidin-3-one 1,1-dioxide] | ≤ 1 | ≤ 1 |
| Cc1cc(-c2ccc(O)c(N3CC(=O)NS3(=O)=O)c2F)nn1C1CC1 [Compound 340, 5-(3-(1-cyclopropyl-5-methyl-1H-pyrazol-3-yl)-2-fluoro-6-hydroxyphenyl)-1,2,5-thiadiazolidin-3-one 1,1-dioxide] | ≤ 1 | ≤ 1 |
| CC(C)CCn1ccc(-c2ccc(O)c(N3CC(=O)NS3(=O)=O)c2F)c1 [Compound 125, 5-(2-fluoro-6-hydroxy-3-(1-isopentyl-1H-pyrrol-3-yl)phenyl)-1,2,5-thiadiazolidin-3-one 1,1-dioxide] | ≤ 1 | ≤ 1 |
| O=C1CN(c2c(O)ccc(-c3cc(N4CCC5(CCCN5)C4)n[nH]3)c2F)S(=O)(=O)N1 (stereo not shown) [Compound 321, 5-(3-(3-(1,7-diazaspiro[4.4]nonan-7-yl)-1H-pyrazol-5-yl)-2-fluoro-6-hydroxyphenyl)-1,2,5-thiadiazolidin-3-one 1,1-dioxide] | ≤ 1 | ≤ 1 |
| CN(C)CCn1cc(-c2ccc(O)c(N3CC(=O)NS3(=O)=O)c2F)cn1 [Compound 148, 5-(3-(1-(2-(dimethylamino)ethyl)-1H-pyrazol-4-yl)-2-fluoro-6-hydroxyphenyl)-1,2,5-thiadiazolidin-3-one 1,1-dioxide] | ≤ 1 | ≤ 1 |
| CCn1nc(-c2ccc(O)c(N3CC(=O)NS3(=O)=O)c2F)cc1C1CC1(F)F (stereo not shown) [Compound 494, 5-(3-(5-(2,2-difluorocyclopropyl)-1-ethyl-1H-pyrazol-3-yl)-2-fluoro-6-hydroxyphenyl)-1,2,5-thiadiazolidin-3-one 1,1-dioxide] | ≤ 1 | ≤ 1 |
| Cn1nc(C2CC2)cc1-c1ccc(O)c(N2CC(=O)NS2(=O)=O)c1F [Compound 278, 5-(3-(3-cyclopropyl-1-methyl-1H-pyrazol-5-yl)-2-fluoro-6-hydroxyphenyl)-1,2,5-thiadiazolidin-3-one 1,1-dioxide] | ≤ 1 | ≤ 1 |
| CC(C)CCN1CCCC(c2ccc(O)c(N3CC(=O)NS3(=O)=O)c2F)C1 (stereo not shown) [Compound 198, 5-(2-fluoro-6-hydroxy-3-(1-isopentylpiperidin-3-yl)phenyl)-1,2,5-thiadiazolidin-3-one 1,1-dioxide] | > 1 | ≤ 1 |
| CC(C)CCc1ncc(-c2ccc(O)c(N3CC(=O)NS3(=O)=O)c2F)[nH]1 [Compound 334, 5-(2-fluoro-6-hydroxy-3-(2-isopentyl-1H-imidazol-5-yl)phenyl)-1,2,5-thiadiazolidin-3-one 1,1-dioxide] | ≤ 1 | ≤ 1 |
| O=C1CN(c2c(O)ccc(-c3cn(C4CCC4)cn3)c2F)S(=O)(=O)N1 [Compound 241, 5-(3-(1-cyclobutyl-1H-imidazol-4-yl)-2-fluoro-6-hydroxyphenyl)-1,2,5-thiadiazolidin-3-one 1,1-dioxide] | ≤ 1 | ≤ 1 |
| NC(=O)Cn1nc(-c2ccc(O)c(N3CC(=O)NS3(=O)=O)c2F)cc1C1CC1 [Compound 229, 2-(5-cyclopropyl-3-(3-(1,1-dioxido-4-oxo-1,2,5-thiadiazolidin-2-yl)-2-fluoro-4-hydroxyphenyl)-1H-pyrazol-1-yl)acetamide] | ≤ 1 | ≤ 1 |
| O=C1CN(c2c(O)ccc(C3=CCN(C4CC4)C3)c2F)S(=O)(=O)N1 [Compound 296, 5-(3-(1-cyclopropyl-2,5-dihydro-1H-pyrrol-3-yl)-2-fluoro-6-hydroxyphenyl)-1,2,5-thiadiazolidin-3-one 1,1-dioxide] | ≤ 1 | ≤ 1 |
